Reference: the NIST ThermoML archive (doi:10.1016/j.jct.2015.05.020)
± gives the expanded uncertainty stated by the source.

What was measured:
[1] = Molar enthalpy of transition or fusion; details: Crystal; DSC
[2] = Crystal; visual observation

With `COc1cc(C=O)ccc1O` [vanillin] the “Molar enthalpy of transition or fusion” value [1] was 5.92 ± 0.406 kcal/mol and the Normal melting temperature [2] was 81.60 ± 1.1 °C.
